Results: US20220202783A1, “Use Of ADAM9 Inhibitor As Immunomodulator” (China Medical University, priority 2019, published 2022)

Legend:
Format in all cases: cell-based
[1] = test system: lung cancer cells (A549); experiment: cytotoxicity assay in A549 cells; parameters: key to effect of inhibiting tumor cell growth: “+” represents that the compound has the effect of inhibiting tumor cell growth; settings: for IC50: Homo sapiens
Method: (§1) Please refer to FIG. 1A, FIG. 1B and Table 2, which show the analysis results of the compound of Formula (I) inhibiting ADAM9 activity. In FIG. 1A, Bm7 lung cancer cells were treated with the derivatives of the compound 6X-0310, and then cultured under anchorage-free culture condition. The expressions of ADAM9 and CDCP1 in Bm7 lung cancer cells were detected by Western blot, in which EF1α is an internal control, and mock represents Bm7 lung cancer cells without treatment. […] In the experiment, the compounds of Formula (I) of Example 1 to Example 32 were further performed cytotoxicity assay to measure the IC50 value of the compounds of Formula (I) of the present disclosure in lung cancer cell lines.

[2] = test system: Bm7 lung cancer cells; experiment: cytotoxicity assay, FIG. 1B and Table 2 summary
Method: as §1

[3] = test system: lung cancer cells (TC1); experiment: cytotoxicity assay in TC1 cells; parameters: key to effect of inhibiting tumor cell growth: “+” represents that the compound has the effect of inhibiting tumor cell growth; settings: for IC50: TC-1
Method: as §1

[4] = test system: lung cancer cells (Bm7brmx2-1st); experiment: cytotoxicity assay in Bm7brmx2-1st cells; parameters: key to effect of inhibiting tumor cell growth: “+” represents that the compound has the effect of inhibiting tumor cell growth
Method: as §1

[5] = test system: lung cancer cells (Bm7brmx2); experiment: cytotoxicity assay in Bm7brmx2 cells; parameters: key to effect of inhibiting tumor cell growth: “+” represents that the compound has the effect of inhibiting tumor cell growth
Method: as §1

[6] = test system: HNOF; experiment: cytotoxicity assay in HNOF cells; parameters: key to effect of inhibiting tumor cell growth: “+” represents that the compound has the effect of inhibiting tumor cell growth; settings: HNOF
[7] = cytotoxicity assay in HNOF cells; parameters: key to effect of inhibiting tumor cell growth: “+” represents that the compound has the effect of inhibiting tumor cell growth; settings: human, HNOF cells
[8] = test system: lung cancer cells (H1299); experiment: cytotoxicity assay in H1299 cells; parameters: key to effect of inhibiting tumor cell growth: “+” represents that the compound has the effect of inhibiting tumor cell growth; settings: for effect of inhibiting tumor cell growth: H1299; for IC50: Homo sapiens, NCI-H1299
Method: as §1

[9] = test system: lung cancer cells (Bm7brmx2-2nd); experiment: cytotoxicity assay in Bm7brmx2-2nd cells; parameters: key to effect of inhibiting tumor cell growth: “+” represents that the compound has the effect of inhibiting tumor cell growth
Method: as §1

[10] = test system: CDCP1 in Bm7 lung cancer cells; experiment: Western blot of ADAM9 and CDCP1 expression in Bm7 cells; settings: anchorage-free culture
Method: as §1

[11] = test system: kidney cancer cells (293); experiment: cytotoxicity assay in 293 cells; parameters: key to effect of inhibiting tumor cell growth: “+” represents that the compound has the effect of inhibiting tumor cell growth; settings: Homo sapiens, HEK293
[12] = cytotoxicity assay in 293 cells; parameters: key to effect of inhibiting tumor cell growth: “+” represents that the compound has the effect of inhibiting tumor cell growth; settings: 293

SMILES	effect of inhibiting tumor cell growth [1]	IC50 [1]	tumor cell cytotoxicity compared with the core structure compound 6X-0310 [2]	effect of inhibiting tumor cell growth [3]	IC50 [3]	IC50 [4]	effect of inhibiting tumor cell growth [4]	IC50 [5]	effect of inhibiting tumor cell growth [5]	effect of inhibiting tumor cell growth [6]	IC50 [7]	effect of inhibiting tumor cell growth [8]	IC50 [8]	IC50 [9]	effect of inhibiting tumor cell growth [9]	expression of CDCP1 [10]	IC50 [11]	effect of inhibiting tumor cell growth [12]
COc1ccc(OC)c(/C=N/Nc2nc(CCN3C(=O)c4ccccc4C3=O)cs2)c1 [2X-0295]	+	1020 µM	stronger tumor cell cytotoxicity	+	79 µM	53.2 µM	+	75.2 µM	+	+	78.4 µM	+	72 µM	267 µM	+	reduce the expression of CDCP1	77.4 µM	+
CSc1ccc(/C=C(/C#N)c2nc(CCN3C(=O)c4ccccc4C3=O)cs2)cc1 [4X-0296]	+	167 µM	stronger tumor cell cytotoxicity	+	73.6 µM	39.3 µM	+	92 µM	+	+	96.2 µM	+	94.5 µM	447 µM	+	reduce the expression of CDCP1	79.2 µM	+
N#C/C(=C\c1ccc(OCc2cccc(C(F)(F)F)c2)cc1)c1nc(CCN2C(=O)c3ccccc3C2=O)cs1 [6X-0310]	+	200 µM	–	+	111 µM	54.6 µM	+	176 µM	+	+	141 µM	+	116 µM	250 µM	+	reduce the expression of CDCP1	58.9 µM	+
O=C1c2ccccc2C(=O)N1CCc1csc(COc2ccccc2Cl)n1 [12W-0264]	+	162 µM	stronger tumor cell cytotoxicity	+	88.9 µM	40.9 µM	+	99.2 µM	+	+	> 125 µM	+	138 µM	151 µM	+	reduce the expression of CDCP1	59.7 µM	+
Cc1ccc(-c2nc(CCN3C(=O)c4ccccc4C3=O)cs2)cc1 [12W-0274]	+	> 125 µM	–	+	161 µM	80.6 µM	+	913 µM	+	+	125 µM	+	203 µM	472 µM	+	–	21.8 µM	+
O=C1c2ccccc2C(=O)N1CCc1csc(-c2cccc(F)c2)n1 [12W-0275]	+	199 µM	–	+	103 µM	97 µM	+	212 µM	+	+	129 µM	+	156 µM	441 µM	+	–	109 µM	+
O=C1c2ccccc2C(=O)N1CCc1csc(-c2nc(CCN3C(=O)c4ccccc4C3=O)cs2)n1 [12W-0290]	+	> 125 µM	–	+	399 µM	84.2 µM	+	845 µM	+	+	147 µM	+	159 µM	3980 µM	+	–	69.4 µM	+
